Measurements published in patent US20110195924A1, “Methods of Inhibiting the Interaction Between S100P and the Receptor for Advanced Glycation End-Products” (priority 2008, published 2011).

How the values were obtained:
[1] = molecular target: T1, S100P (Homo sapiens, UniProt P25815); test: S100P binding to cromolyn using affinity chromatography; conditions: cromolyn coupled to AF-TOYOPEARL; control column did not retain
T1 construct: full-length human S100P cDNA (NM_005980) was cloned into the pTrcHis2 vector; made in house; host or cells: bacteria (pTrcHis2 vector, IPTG induction)
T1 sequence (P25815 1-95): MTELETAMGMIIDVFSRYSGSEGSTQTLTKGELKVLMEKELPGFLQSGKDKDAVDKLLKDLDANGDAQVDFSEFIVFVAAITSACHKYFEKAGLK
Description: Cromolyn was coupled with the amino group of AF-amino TOYOPEARL to generate a cromolyn affinity column. A negative control column was prepared by blocking the amino group. Purified S100P was added to both columns, which were then washed extensively. Protein was eluted from the columns using EGTA and subjected to sodium dodecylsulfate polyacrylamide gel electrophoresis and staining with Commassie blue. Lane 1 of the gel is the molecular weight marker; lane 2 is the eluate from the control column; and lane 3 is the eluate from the cromolyn column (arrow, S100P). The gel shown is one of three independent experiments.
Cromolyn was coupled to AF-TOYOPEARL resin as described in Shishibori, et al., Three distinct anti-allergic drugs, amlexanox, cromolyn and tranilast, bind to S100A12 and S100A13 of the S100 protein family; Biochem. J. 1999 Mar. 15;338 (Pt 3):583-9. Briefly, 0.1 grams of cromolyn was dissolved in 1 mL of N,N-dimethylformamide and added to 7 mL (5 grams wet mass) AF-TOYOPEARL. Next, 0.5 grams of N-ethyl-N-(3-dimethylaminopropyl)carbodiimide hydrochloride, suspended in 10 mL of N,N-dimethylformamide, was added to the cromolyn+AF-TOYOPEARL slurry. The pH was adjusted to 5.0, and the slurry was incubated with gentle shaking for 48 hours at 25° C. As a negative control, a column was prepared by blocking the amino group of AF-TOYOPEARL with sodium acetate and acetic anhydride. […]

[2] = system: Panc-1 cells; test: Panc-1 cell proliferation (MTS); type: cell-based
Description: Panc-1 pancreatic adenocarcinoma cells (1.0×10^3 cells/well) were cultured in the presence or absence of S100P (100 nM) and with or without cromolyn (100 μM), and cell proliferation was analyzed at 24, 48, and 72 hours. Means and 95% confidence intervals of three independent experiments performed in triplicate are shown. *, P=0.001, S100P alone versus S100P+cromolyn.
Panc-1 cells were plated at 1.0×10^3 cells/well and treated with platelet-derived growth factor (10 ng/mL) with or without cromolyn (100 μM), and cell proliferation was analyzed after 48 hours. Means and 95% confidence intervals of three independent experiments performed in triplicate are shown. *, P=0.004 PDGF and P=0.022 cromolyn+PDGF versus control.
Growth of Panc-1 and BxPC3 pancreatic adenocarcinoma cells was analyzed using MTS reagent (Promega, Madison, Wis.) according to the manufacturer's directions. Purified S100P (100 nM final concentration) with or without cromolyn (100 μM final concentration) was added to Panc-1 cells. Only cromolyn (0-100 μM) was added to BxPC-3 cells, which express endogenous S100P. For both cell models, 1.0×10^3 cells/well were plated in 96-well culture dishes. Cells were treated with S100P, PDGF, or cromolyn, or a combination, followed immediately by treatment with either S100P or PDGF. MTS (20 μL per well) was added to cells at various times, and the mixture was incubated for 1 hour at 37° C. Samples were then read at 490 nm (as O.D. units) on a uQuant-Microplate Spectrophotometer (Bio-Tek Services Inc., Richmond, Va.). The assay was performed three times in triplicate.

[3] = system: NFκB promoter activity; test: NFκB luciferase reporter assay in BxPC-3 cells; type: cell-based; conditions: 5 hours; for basal NFκB activity, mean: 0 μM mean 1.4×10^6
[4] = system: PC3 prostate cells; test: PC3 prostate cell proliferation; type: cell-based; conditions: different concentrations; 24, 48, 72 hours
Description: PC3 prostate cells were cultured for up to three days in the presence of different concentrations of cromolyn, and cell proliferation was analyzed at 24, 48, and 72 hours. *, P<0.05.

[5] = system: Panc-1 cells; test: Panc-1 matrigel invasion assay; type: cell-based
Description: FIGS. 2A-2D show the effect of cromolyn on pancreatic cancer cell invasion. Panc-1 and BxPC-3 cells were plated in Bio-coat matrigel and control chambers and cultured in serum-free culture media. After 24 hours non-invaded cells in the upper chamber were removed, and cells that invaded onto the lower surface of the membrane were counted from five adjacent fields. […] Data are expressed as the percent invasion through the matrigel matrix and membrane relative to migration through the control membrane. Means and 95% confidence intervals from three independent experiments performed in triplicate are shown. Two-tailed two-sample (unpaired) Student's t-tests were used to determine P values.
Panc-1 and BxPC-3 cells were seeded in BIOCOAT matrigel invasion chambers and in control chambers without matrigel (Becton-Dickinson, Bedford, Mass.) according to the manufacturer's protocol. Panc-1 cells were seeded with S100P (100 nM) with or without cromolyn (100 μM), and BxPC-3 cells were seeded with or without cromolyn (1-100 μM). Briefly, 2.0×10^5 cells in 300 μL top solution (serum-free media) were added to each chamber and allowed to invade matrigel for 24 hours at 37° C. in a 5% CO2 atmosphere. The non-invading cells on the upper surface of membrane were removed from the chambers with a cotton swab, and the invading cells on the lower surface of the membrane were fixed and stained using a Diff-Quick stain kit (Becton Dickinson, Bedford, Mass.). After two washes with water, the chambers were allowed to air dry. The numbers of invading cells in five adjacent microscope fields per membrane were counted at 20× magnification to obtain the average number of cells per field. Data are expressed as the percent invasion through the matrigel matrix and membrane relative to the migration through the control membrane. The assays were performed three times.

[6] = system: MPan-96 cells; test: MPanc-96 cell invasiveness; type: cell-based, Human

O=C(O)c1cc(=O)c2c(OCC(O)COc3cccc4oc(C(=O)O)cc(=O)c34)cccc2o1 [cromolyn, disodium 1,3-bis[(2′-carboxylatochromon-5′-yl)oxy]-2-hydroxypropane] was tested, and the “retention of S100P on cromolyn affinity column” value [1] was “retained S100P”, the “serum stimulated cell proliferation” value ([2]; Panc-1) was “did not influence” and the “cell proliferation, cromolyn treatment alone” value ([2]; Panc-1, no S100P) was “no effect”. The “PDGF stimulated cell growth” value ([2]; Panc-1, PDGF 10 ng/mL with cromolyn 100 μM, 48 hours) was “nor did it inhibit growth stimulation caused by PDGF”, the “cell proliferation, mean” value ([2]; Panc-1, S100P 100 nM + cromolyn 100 μM) was 0.56 MTS units and the “cell proliferation, difference S100P versus S100P+cromolyn” value ([2]; Panc-1, S100P 100 nM, cromolyn 100 μM) was 0.37 MTS units. For the same compound, the “basal NFκB activity, difference versus 0 μM” value ([3]; cromolyn 10 μM) was 4.7×10^5 photons/sec, the “basal NFκB activity, mean” value ([3]; cromolyn 10 μM) was 9.4×10^5 photons/sec and the “basal NFκB activity, difference versus 0 μM” value ([3]; cromolyn 100 μM) was 5.9×10^5 photons/sec. The “basal NFκB activity, mean” value ([3]; cromolyn 100 μM) was 8.2×10^5 photons/sec, the “growth of PC3 cells” value [4] was “reduced growth” and the basal cell invasion ([5]; Panc-1, no S100P) was “did not reduce”. For the same compound, the “cells invaded, mean” value ([5]; Panc-1, S100P 100 nM + cromolyn 100 μM, 24 hours) was 9.4%, the “cells invaded, difference S100P versus S100P+cromolyn” value ([5]; Panc-1, S100P 100 nM, cromolyn 100 μM, 24 hours) was 48.6% and the basal cell invasiveness [6] was “inhibited”.
